Experimental data reported in US7495147B2, “Neuregulin-1 transgenic mouse and methods of use” (deCODE genetics ehf., priority 2000, dated 2009).

Tested on: NRG1TM hypomorphic mice
Assay: open field test of locomotor activity in NRG1TM hypomorphic mice and litter-mate controls
Format: in vivo, mouse
Details: litter-mate control (wild-type) mice; clozapine 1 mg/kg i.p. 25 min prior to testing
Method: Male NRG1TM hypomorphs, ErbB4 hypomorphs and litter-mate controls for each line were bred at Charles River Laboratories USA by crossing to a C57B16 background. They were shipped to the testing laboratory at PsychoGenics Inc. NY, USA (six weeks prior to behavioral testing) where they were housed in groups of 3-5 related mice per cage. The open field study was conducted when the male mice were 5 to 6 months of age. Group housed mice were brought into the experimental room and allowed to acclimate for one hour prior to testing. Each mouse was placed for 30 minutes in a square open field box (17×17×12 inch). Up to eight animals were tested at one time, one animal in each of eight arenas, under low lighting conditions (provided by a 15 watt red lamp). The automated infrared beam array system measured locomotion in the center and periphery of the test arena. Activity data were collected in 5 min intervals over the 30 min open field session and analyzed with a series of repeated measures analysis of variance (ANOVA) with session interval as a within-subject factor and genotype as a between-subject factor. Clozapine (1 mg/kg in 1% Tween 20, pH 6.0) was injected intraperitoneally (i.p.) 25 min before behavioral testing. Total activity data from the study with clozapine were analyzed with a two-tailed, Student's t-test. Naïve mice were used for these experiments. […]

CN1CCN(C2=Nc3cc(Cl)ccc3Nc3ccccc32)CC1 [Clozapine, clozapine]
open field activity of litter-mate control mice: no effect
